Structures are written as SMILES.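 A five-concentration, 48-hour dose response in 96-well plates underlies each endpoint, interpolated linearly between surrounding concentrations. TGI marks complete inhibition of growth.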

TGI data for 15 compounds are collected here from PubChem BioAssay (NCI).

Holding throughout (experiment): DTP human tumour cell line panel, 48 h
Test [1] has as its system COLO 205 colon.
For test [2], the system named is MALME-3M melanoma.
Test [3] deals with MDA-MB-231 breast.
Test [4] relates to SNB-75 CNS.
Test [5] has as its system A549 NSCLC.
The subject of test [6] is 786-0 renal.
The test system of test [7] is SK-OV-3 ovarian.
Test [8] has as its system KM12 colon.
The subject of test [9] is BT-549 breast.
The test system of test [10] is PC-3 prostate.
In test [11] the test system is SK-MEL-5 melanoma.
Test [12] relates to OVCAR-5 ovarian.
Test [13] deals with ACHN renal.
The subject of test [14] is MOLT-4 leukemia.

In general, TGI refers to the concentration at which net growth stops. A high value points to lower sensitivity of the cells. `COC(=O)CCNC(=O)OCc1ccccc1`: the TGI in test [1], in test [2], in test [3], in test [4], in test [5] and in test [6] was over 100 µM throughout. Moreover, the TGI in [7], in test [8], in [9], in test [10], in test [11] and in [12] was over 100 µM in each case. Besides, the TGI in [13] and in test [14] was over 100 µM in each case.

In the case of `COC1CC(OC2C(C)OC(OC3C(C)OC(OC4C(C)OC(O[C@H]5CC[C@@]6(C)C(=CC[C@]7(O)[C@@H]6C[C@@H](OC(C)=O)[C@@]6(C)[C@]7(O)CC[C@@]6(O)C(C)=O)C5)CC4OC)CC3OC)CC2OC)OC(C)C1O` (stereo not given in full), the TGI in test [1], in [2], in [3], in [4], in test [5] and in test [6] was over 25 µM in each case. Besides, the TGI in test [7], in test [8], in [9], in test [10], in test [11] and in test [12] was over 25 µM in each case. The TGI in test [13] and in [14] was over 25 µM throughout.

For the compound `O=C1O[C@H]2[C@H](OC(=O)c3cc(O)c(O)c(O)c3)[C@@H](OC(=O)c3cc(O)c(O)c4c3[C@@H]3C1=CC(=O)C(O)(O)C3(O)O4)[C@H](OC(=O)c1cc(O)c(O)c(O)c1)O[C@@H]2COC(=O)c1cc(O)c(O)c(O)c1` (stereo not given in full), the TGI in [1], in test [2], in test [3], in test [4], in test [5] and in test [6] was over 100 µM each time. Besides, the TGI was over 100 µM in test [7]; 41.1 µM in test [8]; over 100 µM in test [9]; over 100 µM in test [10]; over 100 µM in test [11]; over 100 µM in [12]. The TGI in test [13] and in [14] was over 100 µM throughout.

Take `O=C1Nc2nccnc2C(=O)N2CCC[C@@H]12`: the concentration for total growth inhibition (TGI) in test [1], in [2], in test [3], in test [4], in [5] and in [6] was over 100 µM throughout. The TGI in test [7], in test [8], in test [9], in test [10], in test [11] and in test [12] was over 100 µM in each case. Moreover, the TGI in [13] and in test [14] was over 100 µM in each case.

In the case of `CC(C)=CCC[C@@H](C)C1=C(O)C(Nc2ccccc2Cl)=C(C)C(=O)C1=O`, the TGI in test [1] was 21.7 µM; in test [2], 29.3 µM; in test [3] it was over 70.8 µM; in [4] it was over 52.3 µM; in test [5], over 59.7 µM; in [6], over 52 µM. Moreover, the TGI in [7] is over 75 µM; in test [8], 30 µM; in test [9], over 75 µM; in [10], over 64.2 µM; in test [11], 42.9 µM; in test [12], over 75 µM. Also, the TGI in [13] is over 46.6 µM; in test [14], over 57.5 µM.

In the case of `CC(=O)NCC1OC2COC(c3ccccc3)OC2C(NC(=O)c2ccccc2)C1OC(=O)c1ccccc1` (stereo not given), the TGI in test [1], in test [2], in [3], in test [4], in test [5] and in test [6] was over 100 µM in each case. Moreover, the TGI in [7], in [8], in [9], in test [10], in test [11] and in test [12] was over 100 µM in each case. Moreover, the TGI in test [13] and in [14] was over 100 µM in each case.

Take `CCOC(=O)NC(Nc1ccc(F)cc1)(C(=O)OCC)C(F)(F)F` (stereo not given): the TGI in [1], in [2], in test [3], in [4], in [5] and in [6] was over 100 µM throughout. Besides, the TGI in test [7], in test [8], in test [9], in [10], in [11] and in test [12] was over 100 µM throughout. The TGI in test [13] and in test [14] was over 100 µM each time.

With `CCOC(=O)c1nc2ccc(C(F)(F)F)cc2nc1NCc1ccc(OC)c(OC)c1`, the TGI in [1], in test [2], in test [3], in [4], in test [5] and in test [6] was over 100 µM each time. Moreover, the TGI in test [7], in [8], in test [9], in test [10], in test [11] and in [12] was over 100 µM each time. Further, the TGI in [13] and in test [14] was over 100 µM in each case.

With `CC(C)=CCCC(C)CCOS(=O)C(F)(F)F` (stereo not given), the TGI in [1] was 20.2 µM; in test [2] it was 18.9 µM; in test [3] it was 61.4 µM; in test [4], 67.7 µM; in test [5], 72.1 µM; in [6] it was over 100 µM. For the same compound, the TGI in test [7] was over 100 µM; in test [8], over 100 µM; in test [9] it was 77.8 µM; in test [10], 45.3 µM; in test [11], 33.1 µM; in test [12], 47.8 µM. The TGI in test [13] is 34.4 µM; in [14] it was 24.2 µM.

Consider `Cc1ccc2nc(C(C)C)c(=O)[nH]c2c1`, for which the TGI in test [1], in [2], in [3], in test [4], in test [5] and in test [6] was over 100 µM throughout. The TGI is over 100 µM in test [7]; over 100 µM in test [8]; over 100 µM in test [9]; 34.1 µM in test [10]; over 100 µM in test [11]; over 100 µM in test [12]. Further, the TGI in test [13] and in test [14] was over 100 µM in each case.

For `CCOC(=O)c1nc2cc(C(F)(F)F)ccc2nc1Nc1ccc(C(=O)OC)s1`, the TGI in [1] was 44.5 µM; in test [2], over 100 µM; in test [3], 94.6 µM; in test [4] it was over 100 µM; in [5], over 100 µM; in test [6], 84.8 µM. Also, the TGI in test [7] is over 100 µM; in test [8] it was over 100 µM; in test [9], 74.6 µM; in test [10], over 100 µM; in test [11], over 100 µM; in [12] it was over 100 µM. The TGI in test [13] and in test [14] was over 100 µM in each case.

In the case of `O=Cc1cc(C(=O)OCc2ccccc2)n(S(=O)(=O)c2ccccc2)c1`, the TGI in test [1] was 55.1 µM; in test [2] it was over 100 µM; in test [3] it was 78.1 µM; in test [4], 82.1 µM; in test [5], 68.7 µM; in test [6], over 100 µM. Moreover, the TGI in test [7] was found to be 66.3 µM; in test [8], 37.6 µM; in test [9] it was 33.9 µM; in test [10], 53.6 µM; in test [11], 20.2 µM; in test [12] it was 37.6 µM. Also, the TGI was 36.6 µM in test [13] and over 100 µM in test [14].

On to `O=C1CCc2ccc(O)c(c2)Oc2ccc(cc2)C(Sc2ccccc2)CCO1` (stereo not given), for which the TGI in [1] was 33.1 µM; in [2], 27.9 µM; in test [3] it was 19.2 µM; in test [4] it was 28.4 µM; in test [5], 59 µM; in test [6], 29.6 µM. The TGI is over 100 µM in [7]; 29.5 µM in test [8]; 28.7 µM in [9]; 35.1 µM in test [10]; 24.8 µM in test [11]; 35.3 µM in [12]. Further, the results for the TGI in test [13] and in test [14] were 32.1 µM and over 100 µM, respectively.

On to `COc1ccccc1/C=C/C1=NN(c2cccc(S(=O)(=O)O)c2)C2(C1)C(Cl)C(=O)N2c1nc2ccccc2s1` (stereo not given), for which the TGI is over 100 µM in [1]; over 100 µM in [2]; over 100 µM in test [3]; over 96.3 µM in [4]; over 100 µM in test [5]; over 59.8 µM in test [6]. The TGI in test [7], in test [8], in test [9], in test [10], in [11] and in [12] was over 100 µM each time. Besides, the TGI in [13] and in [14] was over 100 µM in each case.

`O=C(NNC(=S)NC1CCCCC1)C12CC3CC(CC(C3)C1)C2`: the TGI in test [1], in test [2], in test [3], in test [4], in test [5] and in test [6] was over 100 µM in each case. Further, the TGI in [7], in test [8], in test [9], in [10], in test [11] and in test [12] was over 100 µM throughout. The concentration for total growth inhibition (TGI) in [13] and in test [14] was over 100 µM throughout.
